Laboratory results reported in patent US10494332B2, “Protein tyrosine phosphatases or SHP2 inhibitors and uses thereof” (Indiana University Research and Technology Corporation, priority 2015, dated 2019).
Values joined by “and” are separate entries in the source; they are usually repeats but may differ in a detail not shown here. Equal entries are not always repeated. Where two headings read alike, the source gives them in different places.

How the values were obtained:
[1] = molecular target: T1, Laforin (Homo sapiens, UniProt O95278); experiment: PTP inhibition assay (pNPP); assay type: biochemical; details: for IC50: pNPP at Km, pH 7.0, 25° C.
T1 sequence (O95278 1-331): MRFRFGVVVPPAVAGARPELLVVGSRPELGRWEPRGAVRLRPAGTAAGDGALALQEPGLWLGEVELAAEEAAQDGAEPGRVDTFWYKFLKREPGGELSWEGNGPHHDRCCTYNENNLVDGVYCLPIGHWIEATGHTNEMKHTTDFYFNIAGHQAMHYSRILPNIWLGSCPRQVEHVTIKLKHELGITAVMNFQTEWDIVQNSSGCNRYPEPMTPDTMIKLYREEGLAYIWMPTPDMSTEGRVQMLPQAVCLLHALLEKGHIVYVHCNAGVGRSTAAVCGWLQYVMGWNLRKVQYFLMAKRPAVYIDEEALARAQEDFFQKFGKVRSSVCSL

[2] = molecular target: T2, LYP (Homo sapiens, UniProt Q9Y2R2); experiment: PTP inhibition assay (pNPP); assay type: biochemical; details: pNPP at Km, pH 7.0, 25° C.
T2 sequence (Q9Y2R2 1-807): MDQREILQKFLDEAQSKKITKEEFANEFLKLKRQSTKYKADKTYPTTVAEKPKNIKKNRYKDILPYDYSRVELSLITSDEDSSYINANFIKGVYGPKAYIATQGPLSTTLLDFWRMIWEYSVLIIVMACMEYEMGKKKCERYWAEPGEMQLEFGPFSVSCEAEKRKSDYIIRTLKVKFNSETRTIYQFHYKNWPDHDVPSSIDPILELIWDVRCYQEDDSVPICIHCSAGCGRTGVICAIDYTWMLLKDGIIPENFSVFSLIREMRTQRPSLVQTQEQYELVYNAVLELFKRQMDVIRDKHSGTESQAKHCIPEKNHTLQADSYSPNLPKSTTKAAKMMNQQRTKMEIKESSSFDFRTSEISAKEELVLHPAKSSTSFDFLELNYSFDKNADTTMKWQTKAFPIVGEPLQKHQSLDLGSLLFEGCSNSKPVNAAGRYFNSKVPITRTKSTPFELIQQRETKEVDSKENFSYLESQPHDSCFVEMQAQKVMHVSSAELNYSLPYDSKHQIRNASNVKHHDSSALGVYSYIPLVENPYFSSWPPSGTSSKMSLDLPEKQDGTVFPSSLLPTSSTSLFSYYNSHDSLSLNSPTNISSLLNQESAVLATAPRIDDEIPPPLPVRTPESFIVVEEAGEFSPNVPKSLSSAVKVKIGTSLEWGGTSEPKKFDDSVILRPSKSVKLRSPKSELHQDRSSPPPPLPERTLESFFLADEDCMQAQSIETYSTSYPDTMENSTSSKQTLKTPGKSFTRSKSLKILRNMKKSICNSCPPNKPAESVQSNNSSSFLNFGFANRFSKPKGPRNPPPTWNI

[3] = test system: M. tuberculosis H37Rv; experiment: Chronic TB infection in guinea pigs, adjunctive treatment with HRZ; assay type: in vivo, guinea pig; details: added to the standard regimen HRZ, after 6 weeks of treatment
[4] = molecular target: PTPμ (Homo sapiens, UniProt P28827); experiment: PTP inhibition assay (pNPP)
Sequence of PTPμ (P28827 21-1452): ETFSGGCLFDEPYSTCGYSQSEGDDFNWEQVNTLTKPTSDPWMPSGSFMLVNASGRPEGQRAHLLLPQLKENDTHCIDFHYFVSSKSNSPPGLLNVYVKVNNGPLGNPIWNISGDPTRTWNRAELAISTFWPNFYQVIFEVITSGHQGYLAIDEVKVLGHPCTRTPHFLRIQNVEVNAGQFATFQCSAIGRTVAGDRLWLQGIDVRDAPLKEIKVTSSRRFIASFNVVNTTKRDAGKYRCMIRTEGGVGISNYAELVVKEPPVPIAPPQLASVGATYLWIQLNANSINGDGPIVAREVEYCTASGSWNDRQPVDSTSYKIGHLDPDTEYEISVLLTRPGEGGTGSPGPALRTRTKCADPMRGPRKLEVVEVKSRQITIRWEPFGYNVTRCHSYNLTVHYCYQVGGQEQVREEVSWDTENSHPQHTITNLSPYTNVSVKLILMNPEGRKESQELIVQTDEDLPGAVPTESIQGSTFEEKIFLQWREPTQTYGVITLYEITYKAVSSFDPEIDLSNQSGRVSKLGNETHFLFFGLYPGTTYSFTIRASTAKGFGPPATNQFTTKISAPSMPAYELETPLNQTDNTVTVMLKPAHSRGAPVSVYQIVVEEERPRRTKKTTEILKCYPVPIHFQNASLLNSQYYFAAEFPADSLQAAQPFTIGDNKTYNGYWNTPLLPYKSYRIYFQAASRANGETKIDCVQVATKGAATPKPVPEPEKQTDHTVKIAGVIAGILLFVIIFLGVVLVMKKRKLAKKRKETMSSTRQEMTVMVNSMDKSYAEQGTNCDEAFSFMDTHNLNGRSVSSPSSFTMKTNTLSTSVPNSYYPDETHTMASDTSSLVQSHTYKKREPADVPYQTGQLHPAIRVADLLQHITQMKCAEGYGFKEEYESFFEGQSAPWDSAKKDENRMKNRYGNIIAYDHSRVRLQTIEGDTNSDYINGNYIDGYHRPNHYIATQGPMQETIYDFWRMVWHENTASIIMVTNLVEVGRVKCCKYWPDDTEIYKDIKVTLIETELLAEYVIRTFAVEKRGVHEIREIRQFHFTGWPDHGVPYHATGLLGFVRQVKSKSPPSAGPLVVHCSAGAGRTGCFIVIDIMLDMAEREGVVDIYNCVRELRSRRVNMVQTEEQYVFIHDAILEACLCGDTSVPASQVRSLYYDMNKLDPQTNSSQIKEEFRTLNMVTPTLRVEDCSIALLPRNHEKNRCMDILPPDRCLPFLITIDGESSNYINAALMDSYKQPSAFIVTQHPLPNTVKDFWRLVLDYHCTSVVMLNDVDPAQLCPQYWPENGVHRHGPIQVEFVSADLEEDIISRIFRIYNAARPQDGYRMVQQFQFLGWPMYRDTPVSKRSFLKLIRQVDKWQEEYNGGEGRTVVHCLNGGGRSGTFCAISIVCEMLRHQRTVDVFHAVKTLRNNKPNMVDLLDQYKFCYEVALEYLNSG

[5] = test system: M. tuberculosis (Erdman and H37Rv) in J774 macrophages; experiment: Macrophage assay: growth of M. tuberculosis in IFN-γ activated J774 macrophages; assay type: cell-based, Mycobacterium tuberculosis
[6] = molecular target: FAP1 (Homo sapiens, UniProt Q12923); experiment: PTP inhibition assay (pNPP); assay type: biochemical
Sequence of FAP1 (Q12923 whole entry): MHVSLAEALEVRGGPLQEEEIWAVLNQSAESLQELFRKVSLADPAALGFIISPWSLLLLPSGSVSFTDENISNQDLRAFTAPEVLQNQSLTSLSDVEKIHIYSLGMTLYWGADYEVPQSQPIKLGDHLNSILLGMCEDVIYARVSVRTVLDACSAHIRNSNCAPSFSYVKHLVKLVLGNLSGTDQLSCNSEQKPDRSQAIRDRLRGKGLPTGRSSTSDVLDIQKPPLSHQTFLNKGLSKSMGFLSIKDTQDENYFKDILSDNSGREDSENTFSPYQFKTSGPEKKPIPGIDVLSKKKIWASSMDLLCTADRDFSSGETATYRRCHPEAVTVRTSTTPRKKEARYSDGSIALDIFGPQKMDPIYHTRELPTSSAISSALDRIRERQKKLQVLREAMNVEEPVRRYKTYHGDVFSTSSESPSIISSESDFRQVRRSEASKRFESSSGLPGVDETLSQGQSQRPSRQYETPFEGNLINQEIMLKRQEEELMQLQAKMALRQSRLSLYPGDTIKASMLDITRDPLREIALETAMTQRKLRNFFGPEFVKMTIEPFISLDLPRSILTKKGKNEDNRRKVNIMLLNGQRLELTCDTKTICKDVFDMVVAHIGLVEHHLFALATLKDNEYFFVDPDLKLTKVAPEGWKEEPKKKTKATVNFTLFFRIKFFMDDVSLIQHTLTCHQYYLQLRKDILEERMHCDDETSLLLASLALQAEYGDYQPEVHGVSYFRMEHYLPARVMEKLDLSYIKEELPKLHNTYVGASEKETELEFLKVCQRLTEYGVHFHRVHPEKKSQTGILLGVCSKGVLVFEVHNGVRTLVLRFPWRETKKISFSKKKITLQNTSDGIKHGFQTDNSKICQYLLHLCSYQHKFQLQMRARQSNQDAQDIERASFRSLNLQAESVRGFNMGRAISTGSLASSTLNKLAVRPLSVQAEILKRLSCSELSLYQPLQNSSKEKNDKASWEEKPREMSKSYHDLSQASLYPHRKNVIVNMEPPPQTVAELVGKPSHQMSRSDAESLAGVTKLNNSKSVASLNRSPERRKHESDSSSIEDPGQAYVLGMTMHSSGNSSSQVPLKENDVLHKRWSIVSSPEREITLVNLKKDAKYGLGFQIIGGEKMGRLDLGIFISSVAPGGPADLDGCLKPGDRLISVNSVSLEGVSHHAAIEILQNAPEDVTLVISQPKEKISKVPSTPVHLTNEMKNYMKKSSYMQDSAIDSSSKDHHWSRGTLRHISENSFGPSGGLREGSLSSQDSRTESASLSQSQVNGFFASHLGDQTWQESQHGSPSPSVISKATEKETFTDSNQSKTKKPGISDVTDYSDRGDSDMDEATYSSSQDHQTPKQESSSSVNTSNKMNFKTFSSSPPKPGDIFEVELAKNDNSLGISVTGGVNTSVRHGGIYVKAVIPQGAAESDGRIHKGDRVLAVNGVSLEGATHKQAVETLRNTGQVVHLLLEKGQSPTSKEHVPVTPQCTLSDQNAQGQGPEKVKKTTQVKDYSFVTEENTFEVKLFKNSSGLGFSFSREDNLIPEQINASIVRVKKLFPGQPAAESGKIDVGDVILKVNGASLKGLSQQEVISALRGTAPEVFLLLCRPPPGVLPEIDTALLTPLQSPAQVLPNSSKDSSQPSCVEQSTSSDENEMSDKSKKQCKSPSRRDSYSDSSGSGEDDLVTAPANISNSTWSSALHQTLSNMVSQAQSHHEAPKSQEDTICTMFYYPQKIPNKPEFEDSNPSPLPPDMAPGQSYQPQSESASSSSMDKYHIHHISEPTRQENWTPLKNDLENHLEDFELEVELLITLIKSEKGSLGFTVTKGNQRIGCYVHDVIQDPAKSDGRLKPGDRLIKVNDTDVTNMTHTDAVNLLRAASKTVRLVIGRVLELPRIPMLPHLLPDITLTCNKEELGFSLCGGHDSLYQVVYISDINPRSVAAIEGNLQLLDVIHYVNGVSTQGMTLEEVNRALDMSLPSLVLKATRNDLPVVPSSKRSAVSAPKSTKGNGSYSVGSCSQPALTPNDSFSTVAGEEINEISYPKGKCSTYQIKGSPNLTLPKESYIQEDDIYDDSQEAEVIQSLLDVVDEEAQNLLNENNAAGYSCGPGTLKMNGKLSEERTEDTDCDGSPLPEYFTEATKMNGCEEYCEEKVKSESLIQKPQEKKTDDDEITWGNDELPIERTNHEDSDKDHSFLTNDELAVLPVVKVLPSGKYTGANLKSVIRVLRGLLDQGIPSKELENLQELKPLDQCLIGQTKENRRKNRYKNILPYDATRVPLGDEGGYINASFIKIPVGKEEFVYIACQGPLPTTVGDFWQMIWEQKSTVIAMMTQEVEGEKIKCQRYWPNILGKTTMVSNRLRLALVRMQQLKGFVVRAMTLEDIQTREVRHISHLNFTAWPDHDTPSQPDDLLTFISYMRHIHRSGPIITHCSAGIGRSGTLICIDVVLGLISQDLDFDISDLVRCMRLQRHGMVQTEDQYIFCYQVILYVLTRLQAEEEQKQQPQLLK

[7] = molecular target: T3, PTPH1 (Homo sapiens, UniProt P26045); experiment: PTP inhibition assay (pNPP); assay type: biochemical
T3 sequence (P26045 1-913): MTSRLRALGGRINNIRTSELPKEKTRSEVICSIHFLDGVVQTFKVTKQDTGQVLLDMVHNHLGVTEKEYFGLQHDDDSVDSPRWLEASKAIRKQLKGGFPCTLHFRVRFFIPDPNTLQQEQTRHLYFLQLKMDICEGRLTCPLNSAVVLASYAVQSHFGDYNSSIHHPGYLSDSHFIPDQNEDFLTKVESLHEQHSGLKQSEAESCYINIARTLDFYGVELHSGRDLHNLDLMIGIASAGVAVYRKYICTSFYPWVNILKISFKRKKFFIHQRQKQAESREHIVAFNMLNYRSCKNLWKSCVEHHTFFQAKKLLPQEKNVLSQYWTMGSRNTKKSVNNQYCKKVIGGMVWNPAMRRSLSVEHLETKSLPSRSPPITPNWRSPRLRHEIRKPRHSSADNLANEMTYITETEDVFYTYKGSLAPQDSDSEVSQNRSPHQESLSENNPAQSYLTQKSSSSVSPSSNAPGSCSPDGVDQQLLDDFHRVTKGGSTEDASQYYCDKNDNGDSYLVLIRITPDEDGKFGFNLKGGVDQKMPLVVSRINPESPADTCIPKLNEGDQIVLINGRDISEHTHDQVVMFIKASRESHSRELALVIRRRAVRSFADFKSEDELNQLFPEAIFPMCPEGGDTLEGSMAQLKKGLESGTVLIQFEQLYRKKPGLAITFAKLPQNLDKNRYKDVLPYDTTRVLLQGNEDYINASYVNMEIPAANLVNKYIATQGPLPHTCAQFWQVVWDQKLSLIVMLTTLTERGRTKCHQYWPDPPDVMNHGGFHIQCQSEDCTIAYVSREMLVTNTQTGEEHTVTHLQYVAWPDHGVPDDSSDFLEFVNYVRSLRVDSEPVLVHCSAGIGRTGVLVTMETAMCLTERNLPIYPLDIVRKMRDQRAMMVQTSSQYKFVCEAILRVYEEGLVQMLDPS

[8] = molecular target: T4, VHZ (Homo sapiens, UniProt Q9BVJ7); experiment: PTP inhibition assay (pNPP); assay type: biochemical
T4 sequence (Q9BVJ7 1-150): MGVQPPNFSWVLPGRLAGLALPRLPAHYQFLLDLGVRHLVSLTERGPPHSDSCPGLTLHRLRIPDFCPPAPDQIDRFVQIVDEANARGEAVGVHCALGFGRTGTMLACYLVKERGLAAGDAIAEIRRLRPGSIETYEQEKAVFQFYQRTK

[9] = Water solubility; assay type: physicochemical
[10] = test system: insulin signaling pathway in HepG2 cells (LMWPTP); experiment: Insulin signaling in HepG2 cells; assay type: cell-based; details: HepG2, 1 hour pretreatment, 5 nM insulin for 5 minutes
Protocol: To assess the effects of L335N15 in insulin signaling pathway, HepG2 cells were pretreated with L335N15 for 1 hour and were subsequently stimulated with 5 nM insulin for 5 minutes. […] Consistent with IR activation, downstream Akt phosphorylation (Ser473) was increased. […] Accordingly, LMWPTP inhibitors such as L335N15 described herein can be used to develop agents for the treatment of type 2 diabetes and insulin resistance.

[11] = pNPP at Km, pH 7.0, 25° C., read-out: IC50 FAP1

Row | SMILES | IC50 [2] | IC50 [4] [µM] | IC50 ([1]; read-out: IC50 Laforin) | IC50 [6, 11] | IC50 [7] [µM] | IC50 [8] [µM] | further results
1 | Cc1c(Br)cc(NC(=O)CS(=O)(=O)O)cc1Br | > 100 µM | > 100 |  |  |  |  | IC50 ([1]; IC50 Laforin): > 100 µM; Further reduction of mean lung CFU relative to HRZ [3]: 0.14 log10; Anti-Mtb activity in infected macrophages ([5]; J774A.1 macrophages, low micromolar concentrations): markedly decrease bacterial load; IC90 ([5]; Mycobacterium tuberculosis, J774, IC90 in macrophages activated with interferon-γ, read-out: In vitro anti-Mtb activity, Mtb-infected macrophages (IC90)): 1.38 µM
2 | O=C(CS(=O)(=O)O)Nc1ccc2nc(C(F)(F)F)[nH]c2c1 | > 100 µM | > 100 | > 100 µM | > 100 µM | > 100 |  | 
3 | O=C(CS(=O)(=O)O)Nc1cnc2ccccc2c1 | > 100 µM | > 100 | > 100 µM | > 100 µM | > 100 |  | 
4 | O=C(NCCNC(=O)C(c1ccccc1)S(=O)(=O)O)c1cccc(C(=O)c2ccccc2)c1 (centres unmarked) [Compound L319-02-A60] | > 200 µM |  | 9 µM | > 200 µM |  |  | 
5 | O=C(NCc1ccc(NC(=O)C(c2ccccc2)S(=O)(=O)O)cc1)c1ccccc1-c1ccc(C(F)(F)F)cc1 (centres unmarked) [Compound L319-05-A64] | 62 µM |  | 0.8 µM | 70 µM |  |  | 
6 | CCCCc1ccc(NC(=O)C(=O)Nc2ccccc2NC(=O)C(c2ccccc2)S(=O)(=O)O)cc1 (centres unmarked) [Compound L319-21-M06] | > 50 µM |  | 0.14 µM | > 50 µM |  |  | 
7 | O=C(Nc1cccc(OCc2ccccc2)c1)C(=O)Nc1ccccc1NC(=O)C(c1ccccc1)S(=O)(=O)O (centres unmarked) [Compound L319-21-M52] | > 50 µM |  | 0.15 µM | > 50 µM |  |  | 
8 | Cc1c(Br)cc(NC(=O)C(c2ccccc2)S(=O)(=O)O)cc1Br (centres unmarked) [Compound L319M34] |  |  |  |  |  |  | IC50 ([6]; IC50 FAP1): > 100 µM
9 | O=C(Nc1ccc(OCc2ccccc2)c(Cl)c1)C(c1ccccc1)S(=O)(=O)O (centres unmarked) [Compound L319M50] | > 200 µM |  | 2.06 µM | 73 µM |  |  | 
10 | O=C(Nc1cccc(OCc2ccccc2)c1)C(c1ccccc1)S(=O)(=O)O (centres unmarked) [Compound L319M52] | > 200 µM | > 200 | 5.08 µM | 88 µM | > 200 | > 200 | 
11 | O=C(Nc1ccc2nc(C(F)(F)F)[nH]c2c1)C(c1ccccc1)S(=O)(=O)O (centres unmarked) [Compound L319M54] | > 200 µM | > 200 | 4.25 µM | 180 µM and > 100 µM |  | > 200 | 
12 | O=C(Nc1ccc(N2CCOCC2)cc1)C(c1ccccc1)S(=O)(=O)O (centres unmarked) [Compound L319M68] | > 200 µM | > 200 | 7.47 µM and 7.5 µM | > 200 µM |  |  | 
13 | O=C(Nc1cnc2ccccc2c1)C(c1ccccc1)S(=O)(=O)O (centres unmarked) [Compound L319M88] | > 200 µM | > 200 | 8.51 µM and 8.5 µM | > 200 µM |  |  | 
14 | O=C(Nc1ccc(-c2ccccc2)cc1)C(c1ccccc1)S(=O)(=O)O (centres unmarked) [Compound L319N08] | > 200 µM |  |  |  |  |  | IC50 ([6]; IC50 FAP1): 71 µM
15 | O=C(Nc1nc2ccccc2s1)C(c1ccccc1)S(=O)(=O)O (centres unmarked) [Compound L319N15] | > 200 µM and 190 µM | > 200 | 2.1 µM | 34 µM |  | > 200 | 
16 | O=C(C(c1ccccc1)S(=O)(=O)O)N1CCC(Cc2ccccc2)CC1 (centres unmarked) [Compound L319N46] | > 200 µM | > 200 | > 200 µM | > 200 µM | > 200 | > 200 | solubility [9]: > 10000 µg/mL
17 | O=C(C(c1ccccc1)S(=O)(=O)O)N1CCC(c2ccc(Cl)c(Cl)c2)CC1 (centres unmarked) [Compound L319N47] | 42 µM | > 200 | 61 µM | 21 µM | 30 | 80 | solubility [9]: > 10000 µg/mL
18 | O=C(C(c1ccccc1)S(=O)(=O)O)N1CCCC2CCCCC21 (centres unmarked) [Compound L319N53] | > 200 µM | > 200 | > 200 µM | 76 µM | > 200 | > 200 | solubility [9]: > 10000 µg/mL
19 | O=C(CS(=O)(=O)O)Nc1nc2ccc([N+](=O)[O-])cc2s1 [Compound L335N15-07] | > 100 µM | > 100 | > 100 µM | > 100 µM | > 100 |  | Inhibition of Laforin at 100 μM ([1]; 100 μM): no detectable inhibition
20 | O=C(CS(=O)(=O)O)Nc1nc2ccccc2s1 [Compound L335N15] | > 100 µM | > 100 | > 100 µM | > 100 µM | > 100 |  | Akt phosphorylation (Ser473) [10]: increased; IR Tyr1162/1163 phosphorylation ([10]; relative to DMSO): enhanced IR Tyr1162/1163 phosphorylation in a dose-dependent fashion
